Source: PMC10025185, “A continuous in silico learning strategy to identify safety liabilities in compounds used in the leather and textile industry” (Archives of Toxicology, 2023)
Where two headings read alike, the source gives them in different places.

Tests used:
Bhas 42 cell line = assay: Bhas 42 cell transformation assay (carcinogenesis); type: cell-based
Experimental: This assay was carried out by adapting the in vitro Bhas 42 cell transformation assay method described in the OECD Guidance Document No. 231 ([2017]) based on the work of Sasaki et al. ([2014]).
It consists of two assays with a different test compound addition schedule to identify compounds with initiating activity (tumour initiators) or promoting activity (tumour promoters). Previously, a cell growth assay for 7 days is performed to set the assay doses of the CTA and another cell growth assay is concurrently performed to the CTA to verify that the selected doses meet the acceptance criteria for the tests.
The carcinogenesis potential of the compound was assayed by means of measuring the frequency of transformed foci (morphologically altered cells that form discrete anchorage-independent colonies) in the Bhas 42 cell line, which can be extrapolated to an assessment of carcinogenic potential. In the transformation assay, the incubation of compounds with two different treatment schedules allowed to identify the initiating or promoting carcinogenic potential of the compounds.

[1] = test system: CHO-K1 (Chinese hamster ovary cells); type: cell-based; conditions: 6 h with or without S9, 24 h without S9
Experimental: The in vitro micronucleus test is a genotoxicity test for the detection of micronuclei in the cytoplasm of interphase cells. Tests were conducted in the presence of the cytokinesis blocker cytochalasin B with three different treatment schedules: (i) short treatment for 6 h; (ii) short treatment for 6 h in the presence of an exogenous source of metabolic activation (cofactor supplemented S9 liver fraction); and (iii) extended treatment for 24 h.
CHO-K1 (Chinese hamster ovary cells, ATCC Item Number CCL-61) were cultured in DMEM F-12 containing 10% foetal bovine serum and 100 units/ml penicillin/100 μg/ml streptomycin (all from Sigma-Aldrich, St Louis, USA). Cells were seeded at 3000 cells/well in a collagen-coated 96-well plate in 100 μl. After 24 h, cells were incubated with CellTracker Orange CMTMR cellular dye solution (Invitrogen, Waltham, USA) for 1 h. Cells were then treated with compounds for 6 h, with or without S9 metabolic activation, or 24 h without S9 metabolic activation. […] After the 6-h compound treatment, cells were incubated with cytochalasin B (Alfa Aesar, Kandel, Germany) for 24 h. In case of 24-h treatment, cells were incubated with compounds in the presence of cytochalasin B and harvested after treatment. Benzo(a)pyrene, mitomycin C, and colchicine were used as positive controls for 6 h, with or without metabolic activation or 24 h treatments, respectively. […] After several washes with BupH-modified DPBS, cells were analysed in an Operetta High-Content Imaging System (PerkinElmer, Waltham, USA). […] Statistical significance was determined with the ANOVA test with significance level adjusted to p < 0.05.

[2] = test system: androgen and oestrogen receptors; assay: ED assays of androgen and oestrogen receptors (overall experimental ED result); type: cell-based
Experimental: The transcriptional activation of androgen receptor (AR) assays was carried out by adapting the OECD protocol 458 (OECD [2020]).
MDA-MB-453 cells (8000 cells/well) expressing an AR luciferase reporter were seeded into 384 white plates (Greiner 781098) in culture medium (DMEM (ATCC), 10% foetal bovine serum (Sigma Aldrich), 1% penicillin–streptomycin (Sigma-Aldrich), 75 µg/ml geneticin (Gibco) and incubated overnight at 37 °C 5% CO2 and 95% humidity. After this time, the cell culture medium was discarded and replaced by assay medium (DMEM (ATCC), 0.1% foetal bovine serum (Sigma-Aldrich), and 1% penicillin–streptomycin (Sigma Aldrich)).
For studying a putative agonist effect, compounds were added to the assay plate using an Echo 550 acoustic liquid handler and incubated overnight at 37 °C 5% CO2 and 95% humidity. For studying the putative antagonist effect, compounds were added using an Echo 550 acoustic liquid handler and incubated for 15 min at 37 °C 5% CO2 and 95% humidity. Then, 1 nM 5α-dihydrotestosterone (DHT) was added, and the cell plate was incubated overnight at 37 °C, 5% CO2, and 95% humidity. After compound incubation, the cell medium was removed, 5 µl of lysis buffer 1X (Promega) was added, and the cell plate was incubated with agitation 15 min at room temperature. A freeze–thaw cycle of 10 min at −80 °C and room temperature was performed. Then 25 µl of luciferase assay reagent (Promega) was added and luminescence was determined on an EnSpire plate reader (Perkin Elmer). Data was fitted to a four-parameter sigmoidal model with Prism 5.1 (Graphpad, Inc).
The transcriptional activation of oestrogen receptor (ER) assay was carried out by adapting the OECD protocol 455 (OECD [2021]) and the method of Li et al. ([2013]).
ER luciferase reporter T47D cells (5000 cells/well) were seeded into 384 white plates (Greiner 781098) in culture medium (RPMI 1640 (Thermo Fisher Scientific 52400), 10% foetal bovine serum (Sigma Aldrich F9665), 1% penicillin–streptomycin (Sigma-Aldrich P0781), 75 µg/ml Geneticin (Gibco 10131)) and incubated overnight at 37 °C and 5% CO2. The following day, the cell culture medium was discarded and replaced by assay medium (RPMI 1640 (Thermo Fisher Scientific 52,400), 0.1% foetal bovine serum (Sigma Aldrich F9665), and 1% penicillin–streptomycin (Sigma Aldrich P0781).
The assay was performed as stated before for the AR assay using 17β-estradiol as agonist instead of DHT.
ED was assessed by transactivation in vitro assays to identify agonists and antagonists of the androgen and oestrogen receptors.
Also, the experimental group analysed the endocrine-disrupting activity for the CMR compounds.

[3] = CMR experimental result (carcinogenicity, micronucleus and reprotoxicity combined, logical OR)
From the text: For comparison with the prediction results, the results of the carcinogenicity, micronucleus, and reprotoxicity assays were combined using a logical OR operator. Therefore, we consider that compounds with a positive result for any of these three experimental assays is a CMR positive.

[4] = significant increase in foci frequency in at least two sequential concentrations
[5] = positive in any of the three experimental assays

Compound | Carcinogen (C) (Bhas 42 cell line) | Micronucleus assay (M) [1] | Experimental result [2] | CMR experimental result [3] | Carcinogen (C) (Bhas 42 cell line; [4]) | CMR experimental result [3, 5] | Experimental result ([2]; endocrine disruptor yes/no)
CCCCC(CC)CN (stereo not drawn) [2-Ethylhexylamine] | Yes | Negative | Yes | – | – | – | –
CNC(=O)c1cc(Cl)ccn1.Cl [4-Chloro-N-methylpyridine-2-carboxamide hydrochloride (1:1)] | No | Negative | No | NO | – | – | –
CCN(CC)c1ccc(N=Nc2c(Cl)cc([N+](=O)[O-])cc2[N+](=O)[O-])c(NC(C)=O)c1 [N-[2-[(2-chloro-4,6-dinitrophenyl)azo]-5-(diethylamino)phenyl]acetamide] | – | Negative | – | – | Yes | YES | Yes
O=C(OCCc1ccccc1)c1ccccc1 [Phenethyl benzoate] | No | Negative | No | – | – | – | –
Reaction mass of cis-4-(isopropyl) cyclohexanemethanol and trans-4-(isopropyl) cyclohexanemethanol | – | Negative | – | – | Yes | YES | No
